This assay has as its system HBV replication in HepG2.2.15 cells. Put plainly: HBV inhibition assay in HepG2.2.15 cells (extracellular HBV DNA by qPCR). The class given is cell-based, Hepatitis B virus. Conditions: Hepatitis B virus, HepG2.2.15, 120 h, five days after compound treatment, extracellular HBV DNA in culture supernatant by qPCR, read-out: EC50 (effective compound concentration at which HBV replication was inhibited by 50%). The text has this: HepG2.2.15 is a stably-transfected cell line containing the HBV genome. It is derived from the hepatoblastoma cell line Hep G2 (American Type Culture Collection, ATCC® HB-8065™) by the published procedures described in reference: M A Selles et al. Proc. Natl. Acad. Sci. USA 1987, 84, 1005-1009. The cell line was maintained in Dulbecco's modified Eagle's medium and nutrient mixture F-12 (DMEM/F-12, Gibco, Cat. #: 11320-033) supplemented with 10% fetal bovine serum (Gibco, Cat. #:10099-141), 100 U/mL penicillin, 100 μg/mL streptomycin (Gibco, Cat. #:15140-122), and 0.3 mg/mL of G418 Sulfate (Gibco, Cat. #: 10131-027).
HepG2.2.15 cells were seeded into 96-well plates at a density of 3×10^4 cells per well in culture media of 100 μL DMEM/F-12 supplemented with 2.5% fetal bovine serum, 100 U/mL penicillin, 100 μg/mL streptomycin and cultured overnight at 37° C. The test compounds were serially half-log diluted in DMSO, then diluted 100 times in culture media. 100 μL culture media containing diluted compounds were added into the plates to reach 0.5% final concentration of DMSO in every well. Five days after compound treatment, culture supernatant was collected for further analysis.
For quantitative PCR detection of extracellular HBV DNA, culture supernatant was processed by 500 μg/mL Proteinase K (Sigma, Cat. #:P2308) digestion at 50° C. for 1 hour. After heat inactivation of the enzyme at 95° C. for 15 minutes, the samples were subjected to HBV DNA quantification by qPCR. The effective compound concentration at which HBV replication was inhibited by 50% (EC50) was determined.
For orientation: In qPCR the cycle at which signal appears reflects the starting amount.
On to `COC1CS(=O)(=O)N(c2cnn3c2CN(C(=O)Nc2cc(F)c(F)c(F)c2)[C@@H](C)C3)C1C` (stereo partly drawn) [Example 31, (6S)-3-(4-methoxy-3-methyl-1,1-dioxo-1,2-thiazolidin-2-yl)-6-methyl-N-(3,4,5-trifluorophenyl)-6,7-dihydro-4H-pyrazolo[1,5-a]pyrazine-5-carboxamide], for which the EC50 was 0.0097 µM.
On to `CC1NS(=O)(=O)N(c2cnn3c2CN(C(=O)Nc2cc(F)c(F)c(F)c2)[C@@H](C)C3)[C@H]1C` (stereo partly drawn) [Example 23, (6S)-3-[(3S)-3,4-dimethyl-1,1-dioxo-1,2,5-thiadiazolidin-2-yl]-6-methyl-N-(3,4,5-trifluorophenyl)-6,7-dihydro-4H-pyrazolo[1,5-a]pyrazine-5-carboxamide], for which the EC50 stood at 0.052 µM.
Consider `CC1C(Oc2ncccn2)CS(=O)(=O)N1c1cnn2c1CN(C(=O)Nc1cc(F)c(F)c(F)c1)[C@@H](C)C2` (stereo partly drawn) [Example 30, (6S)-6-methyl-3-(3-methyl-1,1-dioxo-4-pyrimidin-2-yloxy-1,2-thiazolidin-2-yl)-N-(3,4,5-trifluorophenyl)-6,7-dihydro-4H-pyrazolo[1,5-a]pyrazine-5-carboxamide], for which the EC50 worked out at 0.0035 µM.
Consider `CC1C(O)CS(=O)(=O)N1c1cnn2c1CN(C(=O)Nc1ccnc(C(F)F)c1)[C@@H](C)C2` (stereo partly drawn) [Example 29, (6S)—N-[2-(difluoromethyl)-4-pyridyl]-3-(4-hydroxy-3-methyl-1,1-dioxo-1,2-thiazolidin-2-yl)-6-methyl-6,7-dihydro-4H-pyrazolo[1,5-a]pyrazine-5-carboxamide], for which the EC50 turned out to be 0.32 µM.
As to `C[C@H]1Cn2ncc(N3CCCS3(=O)=O)c2CN1C(=O)Nc1cc(F)c(F)c(F)c1` [Example 1, (6S)-3-(1,1-dioxo-1,2-thiazolidin-2-yl)-6-methyl-N-(3,4,5-trifluorophenyl)-6,7-dihydro-4H-pyrazolo[1,5-a]pyrazine-5-carboxamide], the EC50 turned out to be 0.0046 µM.
In the case of `C[C@H]1Cn2ncc(N3CC(c4ccccc4C(=O)O)CS3(=O)=O)c2CN1C(=O)Nc1cc(F)c(F)c(F)c1` (stereo partly drawn) [Example 36, 2-[2-[(6S)-6-methyl-5-[(3,4,5-trifluorophenyl)carbamoyl]-6,7-dihydro-4H-pyrazolo[1,5-a]pyrazin-3-yl]-1,1-dioxo-1,2-thiazolidin-4-yl]benzoic acid], the EC50 amounted to 0.017 µM.
Turning to `C[C@H]1Cn2ncc(N3CCCS3(=O)=O)c2CN1C(=O)Nc1ccc(Cl)c(F)c1` [Example 3, (6S)—N-(4-chloro-3-fluoro-phenyl)-3-(1,1-dioxo-1,2-thiazolidin-2-yl)-6-methyl-6,7-dihydro-4H-pyrazolo[1,5-a]pyrazine-5-carboxamide], the EC50 worked out at 0.036 µM.
For `C[C@H]1Cn2ncc(N3CCCS3(=O)=O)c2CN1C(=O)Nc1ccccc1F` [Example 8, (6S)-3-(1,1-dioxo-1,2-thiazolidin-2-yl)-N-(2-fluorophenyl)-6-methyl-6,7-dihydro-4H-pyrazolo[1,5-a]pyrazine-5-carboxamide] the value was 0.3 µM; for `C[C@H]1Cn2ncc(N3CCC[S+]3[O-])c2CN1C(=O)Nc1cc(F)c(F)c(F)c1` (stereo partly drawn) [Example 17, (6S)-6-methyl-3-(1-oxo-1,2-thiazolidin-2-yl)-N-(3,4,5-trifluorophenyl)-6,7-dihydro-4H-pyrazolo[1,5-a]pyrazine-5-carboxamide], 0.086 µM.
For `C[C@H]1Cn2ncc(N3CC(N4CCC[C@H]4C(=O)O)CS3(=O)=O)c2CN1C(=O)Nc1cc(F)c(F)c(F)c1` (stereo partly drawn) [Example 35, (2S)-1-[2-[(6S)-6-methyl-5-[(3,4,5-trifluorophenyl)carbamoyl]-6,7-dihydro-4H-pyrazolo[1,5-a]pyrazin-3-yl]-1,1-dioxo-1,2-thiazolidin-4-yl]pyrrolidine-2-carboxylic Acid], the EC50 is 0.0067 µM.
`C[C@H]1Cn2ncc(N3CCNS3(=O)=O)c2CN1C(=O)Nc1cc(F)c(F)c(F)c1` [Example 19, (6S)-3-(1,1-dioxo-1,2,5-thiadiazolidin-2-yl)-6-methyl-N-(3,4,5-trifluorophenyl)-6,7-dihydro-4H-pyrazolo[1,5-a]pyrazine-5-carboxamide]: the EC50 was 0.014 µM.
For `C[C@H]1Cn2ncc(N3CCCNS3(=O)=O)c2CN1C(=O)Nc1cc(F)c(F)c(F)c1` [Example 27, (6S)-3-(1,1-dioxo-1,2,6-thiadiazinan-2-yl)-6-methyl-N-(3,4,5-trifluorophenyl)-6,7-dihydro-4H-pyrazolo[1,5-a]pyrazine-5-carboxamide], the EC50 was determined as 0.044 µM.
For `C[C@H]1Cn2ncc(N3CCCS3(=O)=O)c2CN1C(=O)Nc1ccnc(C(F)F)c1` [Example 6, (6S)—N-[2-(difluoromethyl)-4-pyridyl]-3-(1,1-dioxo-1,2-thiazolidin-2-yl)-6-methyl-6,7-dihydro-4H-pyrazolo[1,5-a]pyrazine-5-carboxamide], the EC50 was found to be 0.083 µM.
Take `C[C@H]1Cn2ncc(N3CC4CCC(=O)N4CS3(=O)=O)c2CN1C(=O)Nc1cc(F)c(F)c(F)c1` (stereo partly drawn) [Example 14, (6S)-6-methyl-N-(3,4,5-trifluorophenyl)-3-(3,3,6-trioxo-4,7,8,8a-tetrahydro-1H-pyrrolo[2,1-d][1,2,5]thiadiazin-2-yl)-6,7-dihydro-4H-pyrazolo[1,5-a]pyrazine-5-carboxamide]: the EC50 came to 0.028 µM.
As to `C[C@H]1Cn2ncc(N3CC(O)CNS3(=O)=O)c2CN1C(=O)Nc1cc(F)c(F)c(F)c1` (stereo partly drawn) [Example 26, (6S)-3-(4-hydroxy-1,1-dioxo-1,2,6-thiadiazinan-2-yl)-6-methyl-N-(3,4,5-trifluorophenyl)-6,7-dihydro-4H-pyrazolo[1,5-a]pyrazine-5-carboxamide], the EC50 came to 0.13 µM.
For `C[C@H]1Cn2ncc(N3[C@@H](C)CS3(=O)=O)c2CN1C(=O)Nc1cc(F)c(F)c(F)c1` [Example 21, (6S)-6-methyl-3-[(3S)-3-methyl-1,1-dioxo-thiazetidin-2-yl]-N-(3,4,5-trifluorophenyl)-6,7-dihydro-4H-pyrazolo[1,5-a]pyrazine-5-carboxamide] the value was 0.046 µM; for `C[C@H]1Cn2ncc(N3CCOCS3(=O)=O)c2CN1C(=O)Nc1cc(F)c(F)c(F)c1` [Example 24, (6S)-3-(3,3-dioxo-1,3,4-oxathiazinan-4-yl)-6-methyl-N-(3,4,5-trifluorophenyl)-6,7-dihydro-4H-pyrazolo[1,5-a]pyrazine-5-carboxamide], 0.011 µM.

These data come from patent US10683299B2, “Pyrazolopyrazine and triazolopyrazine compounds for the treatment of infectious diseases” (Hoffmann-La Roche Inc., priority 2017, dated 2020).
